Data on one compound can be found in publication PMC4545913, “Dual EZH2 and EHMT2 histone methyltransferase inhibition increases biological efficacy in breast cancer cells” (Clinical Epigenetics, 2015).

What all share (assay type): cell-based
Test [1] relates to MDA-MB-231 cells. The experiment in a line: Caspase 3/7 activity (apoptosis). Conditions: MDA-MB-231, dose-dependent (Figure S2).
Test [2] concerns H3K27me3 and H3K9me3 at target genes. The experiment in a line: Chromatin immunoprecipitation (ChIP-PCR) in MDA-MB-231 cells. The conditions noted are these: MDA-MB-231, 2.5 μM, 24 h. An excerpt: Fig. 3 Effects of hit compounds on RNA levels and histone marks. a Sybr green real-time PCR mRNA level measurement of EZH2 target genes and executing enzymes following a 48-h compound treatment at different concentrations of MDA-MB-231 cells. Measurements marked with an ‘*’ are below detection limit, most likely due to cell death. […] Error bars represent the mean ± SD of experiment performed in technical triplicate. b Sybr green real-time PCR measurement of the FBXO32 transcription start site and KRT17 promoter region following chromatin immunoprecipitation, using antibodies to the histone marks shown, of MDA-MB-231 cells treated with three selected compounds at 5 μM for 72 h. […] The fold difference to the untreated sample is shown. Each IP-value has been determined as the relative increase to the no-antibody control and then normalised to GAPDH levels
Fig. 4 Compound-induced upregulation of EZH2-repressed target genes. a Enrichment scores for differential expression of EZH2 targets on treatment with panel of compounds. […] Each IP-value has been determined as the relative increase to the no-antibody control and is shown as fold difference relative to the untreated control. d Western blot showing levels of modified histones, following a 48-h treatment with HKMTI-1-005 at different doses. […]

Test [3] has as its system MDA-MB-231 cells. The experiment in a line: MTT cell viability assay. Conditions: Homo sapiens. The procedure:
Fig. 1 MTT and mRNA levels in MDA-MB-231 cells after pharmacological inhibition and siRNA knockdown of EZH2 and EHMT2(G9a), individually and in combination. a Expression levels of KRT17, FBX032, JMJD3, EZH2, SPINK1 and EHMT2 were measured by qRT-PCR in the MDA-MB-231 cell line 48 h after transfection with siRNAs targeting EZH2 and EHMT2, both individually and in combination. All measurements were normalised to the fold-change (relative to GAPDH) in the mock transfection control. Error bars represent the mean ± SD of experiment performed in technical triplicate. b Expression levels of KRT17, FBX032, JMJD3 and SPINK1 were measured by qRT-PCR in the MDA-MB-231 cell line treated for 48 h with GSK343, UNC0638, and UNC0638 (at 7.5 μM) with increasing doses of GSK343. Each group has been compared to the untreated sample following normalisation to GAPDH. Error bars represent the mean ± SD of experiment performed in technical triplicate. c MTT assay for cell viability of MDA-MB-231 cells after treatment. MDA-MB-231 cells were seeded in 96 well plates. After 24 h, increasing doses of GSK343, UNC0638 or combination treatments (1, 2.5, 5, 7.5, 10 and 15 μM) were added to cells. Control was media with 0.5 % DMSO. Cell viability was measured by MTT assay after a 48-h treatment and a 24-h proliferation period. Error bars represent the mean ± SEM of five independent repeats
(§1) For clonogenic assays, cells were treated with compound for 48 h, media were removed and replaced with fresh media for a further 12 days to measure colony formation. For cell viability assays, lymphoma cells were plated at 20,000 cells in 200 μl per well in U-bottom 96 well plates in RPMI medium +20 % FCS. Cells were re-suspended 48 h later, diluted 10-fold in PBS + propidium iodide (PI) and the concentration of PI negative cells was counted using an Attune flow cytometer with autosampler. Breast cancer cells were seeded at a density of 10,000 cells/well in a sterile 96 clear-well plate with 150 μl of DMEM (+10 % FCS and 2 mM L-Glutamine). Each compound treatment was performed in triplicate for 72 h at concentrations of 100 nM and 1, 5, 10 and 50 μM in 100 μl of full-medium. After 72 h, 20 μl of MTT solution (3 mg of MTT Formazan, Sigma/1 ml PBS) was added to the medium and incubated for 4 h at 37 °C in a CO2 incubator. The MTT-product was solubilised with 100 μl DMSO, and for 1 h, incubated in the dark at room temperature. The optical density was read at 570 nm with PHERAstar.
For orientation: Tetrazolium dyes change colour on reduction, which living cells bring about.

Another test relates to BT-474. The experiment in a line: MTT cell viability assay. Conditions: Homo sapiens, read-out: Cell growth IC50 BT-474. The procedure: as §1
A further test relates to SkBr3. Nature of the test: MTT cell viability assay. Conditions: Homo sapiens, SK-BR-3, read-out: Cell growth IC50 SkBr3. The procedure: as §1

Like-named read-outs stand apart in the source and are kept apart here.

The term IC50 denotes the concentration that gives 50% inhibition. For the compound `COc1cc2nc(N3CCN(C)CC3)nc(NC3CCN(Cc4ccccc4)CC3)c2cc1OC` [HKMTI-1-005], the “Induction of apoptosis measured by Caspase 3/7 activity” value in the test with MDA-MB-231 cells [1] is “induces apoptosis”. In addition, the “H3K27me3 and H3K9me3 at the SPINK1 transcription start site (ChIP-PCR)” value in test [2] was “reduction in both H3K27me3 and H3K9me3”. The IC50 in the test with MDA-MB-231 cells [3] (MDA-MB-231, MTT (Table 3B), read-out: Cell growth IC50 MDA-MB-231) is 4.3 µM; with MDA-MB-231 cells [3] (MDA-MB-231 (Table 2), read-out: Cell viability (MTT) IC50) it was 4.3 µM; with BT-474, 2.1 µM; in the test on SkBr3 it was 7.7 µM.
